Laboratory results taken from ChEMBL document CHEMBL5034015, “Structure-Based Optimization of 3-Phenyl-N-(2-(3-phenylureido)ethyl)thiophene-2-sulfonamide Derivatives as Selective Mcl-1 Inhibitors” (J Med Chem, 2021).
pIC50, pKi: −log10 of the molar value. Activity calls are given as the source filed them. Unless noted, the calls are words filed in the database; no cut-off is given here.

Assays:
Bcl-2-like protein 1 [1] = target: T1, Bcl-2-like protein 1 (Homo sapiens, UniProt Q07817); assay: Binding affinity to full length human Bcl-xl expressed in Escherichia coli BL21 (DE3) assessed as inhibition constant preincubated for 30 mins followed by 5-FAM-QEDIIIINIARHLAQVGDSMD-RSIPPG tracer addition and measured after 20 mins by fluorescence polarization assay
T1 sequence (Q07817 whole entry): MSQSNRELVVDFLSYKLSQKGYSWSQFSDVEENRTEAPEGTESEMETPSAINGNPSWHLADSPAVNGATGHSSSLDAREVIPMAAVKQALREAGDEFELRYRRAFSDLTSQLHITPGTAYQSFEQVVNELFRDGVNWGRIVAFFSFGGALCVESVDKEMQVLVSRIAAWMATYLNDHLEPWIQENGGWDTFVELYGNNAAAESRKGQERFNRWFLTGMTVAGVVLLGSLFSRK

[2] = target: T2, Apoptosis regulator Bcl-2 (Homo sapiens, UniProt P10415); assay: Binding affinity to full length human Bcl-2 expressed in Escherichia coli BL21 (DE3) assessed as inhibition constant preincubated for 30 mins followed by 5-FAM-QEDIIIINIARHLAQVGDSMD-RSIPPG tracer addition and measured after 20 mins by fluorescence polarization assay
T2 sequence (P10415 whole entry): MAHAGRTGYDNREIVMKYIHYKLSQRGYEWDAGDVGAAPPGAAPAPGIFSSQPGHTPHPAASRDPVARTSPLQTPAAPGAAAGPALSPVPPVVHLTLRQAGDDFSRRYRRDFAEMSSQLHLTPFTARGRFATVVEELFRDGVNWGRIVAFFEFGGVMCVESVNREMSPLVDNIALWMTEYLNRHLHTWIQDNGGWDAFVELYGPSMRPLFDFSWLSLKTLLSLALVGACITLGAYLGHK

[3] = target: T3, Induced myeloid leukemia cell differentiation protein Mcl-1 (Homo sapiens, UniProt Q07820); assay: Binding affinity to full length human MCL1 expressed in Escherichia coli BL21 (DE3) assessed as inhibition constant preincubated for 30 mins followed by 5-FAM-QEDIIIINIARHLAQVGDSMD-RSIPPG tracer addition and measured after 20 mins by fluorescence polarization assay
T3 sequence (Q07820 whole entry): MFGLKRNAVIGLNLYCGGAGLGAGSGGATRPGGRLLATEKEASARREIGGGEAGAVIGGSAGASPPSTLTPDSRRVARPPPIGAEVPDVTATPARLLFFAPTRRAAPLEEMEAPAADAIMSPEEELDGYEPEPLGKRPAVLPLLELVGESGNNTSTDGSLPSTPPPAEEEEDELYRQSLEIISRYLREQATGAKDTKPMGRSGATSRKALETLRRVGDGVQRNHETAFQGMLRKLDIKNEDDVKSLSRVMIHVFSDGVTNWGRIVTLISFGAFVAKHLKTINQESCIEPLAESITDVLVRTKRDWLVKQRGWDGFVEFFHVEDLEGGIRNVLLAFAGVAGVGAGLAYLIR

HEK-293T = assay: Cytotoxicity against HEK293T cells assessed as reduction in cell viability incubated for 48 hrs by CCK8 assay; details: Homo sapiens
[4] = target: T3, Induced myeloid leukemia cell differentiation protein Mcl-1; assay: Binding affinity to 15N-labeled human MCL1 (172 to 327 residues) expressed in Escherichia coli BL21 (DE3) assessed as chemical shift at H224 residue at 0.3 mM incubated for 1 hr by 15N HSQC NMR spectroscopy analysis
[5] = target: T3, Induced myeloid leukemia cell differentiation protein Mcl-1; assay: Binding affinity to 15N-labeled human MCL1 (172 to 327 residues) expressed in Escherichia coli BL21 (DE3) assessed as chemical shift at F228 residue at 0.3 mM incubated for 1 hr by 15N HSQC NMR spectroscopy analysis
[6] = target: T3, Induced myeloid leukemia cell differentiation protein Mcl-1; assay: Binding affinity to 15N-labeled human MCL1 (172 to 327 residues) expressed in Escherichia coli BL21 (DE3) assessed as chemical shift at M231 residue at 0.3 mM incubated for 1 hr by 15N HSQC NMR spectroscopy analysis
[7] = target: T3, Induced myeloid leukemia cell differentiation protein Mcl-1; assay: Binding affinity to 15N-labeled human MCL1 (172 to 327 residues) expressed in Escherichia coli BL21 (DE3) assessed as chemical shift at L235 residue at 0.3 mM incubated for 1 hr by 15N HSQC NMR spectroscopy analysis
[8] = target: T3, Induced myeloid leukemia cell differentiation protein Mcl-1; assay: Binding affinity to 15N-labeled human MCL1 (172 to 327 residues) expressed in Escherichia coli BL21 (DE3) assessed as chemical shift at M250 residue at 0.3 mM incubated for 1 hr by 15N HSQC NMR spectroscopy analysis
[9] = target: T3, Induced myeloid leukemia cell differentiation protein Mcl-1; assay: Binding affinity to 15N-labeled human MCL1 (172 to 327 residues) expressed in Escherichia coli BL21 (DE3) assessed as chemical shift at R263 residue at 0.3 mM incubated for 1 hr by 15N HSQC NMR spectroscopy analysis
HeLa [10] = assay: cells; details: Homo sapiens, 48 h
Description: Cytotoxicity against human HeLa cells assessed as inhibition of cell growth incubated for 48 hrs by CCK8 assay

HL-60 [11] = assay: cells; details: Homo sapiens, HL-60, 48 h
Description: Cytotoxicity against human HL-60 cells assessed as inhibition of cell growth incubated for 48 hrs by CCK8 assay

RS4-11 [12] = assay: cells; details: Homo sapiens, RS4-11, 48 h
Description: Cytotoxicity against human RS4-11 cells assessed as inhibition of cell growth incubated for 48 hrs by CCK8 assay

RS4-11 [13] = assay: Induction of apoptosis in human RS4-11 cells assessed as viable cells at 20 uM measured after 24 hrs by Annexin V/7-AAD and MitoSense Red staining based flow cytometry analysis relative to control (reference value: 94.15 %); assay type: functional; details: read-out: Activity
RS4-11 [14] = assay: Induction of apoptosis in human RS4-11 cells assessed as early apoptotic cells at 20 uM measured after 24 hrs by Annexin V/7-AAD and MitoSense Red staining based flow cytometry analysis relative to control (reference value: 3.75 %); assay type: functional
RS4-11 [15] = assay: Induction of apoptosis in human RS4-11 cells assessed as late apoptotic cells at 20 uM measured after 24 hrs by Annexin V/7-AAD and MitoSense Red staining based flow cytometry analysis relative to control (reference value: 0.99 %); assay type: functional
RS4-11 [16] = assay: Induction of apoptosis in human RS4-11 cells assessed as necrotic cells at 20 uM measured after 24 hrs by Annexin V/7-AAD and MitoSense Red staining based flow cytometry analysis relative to control (reference value: 1.11 %); assay type: functional
MCF7 = assay: Inhibition of Bcl-2/Bim interaction in human MCF7 cells assessed as disruption of Bcl-2/Bim complex at 10 uM measured after 24 hrs by co-immunoprecipitation based western blot analysis relative to control; assay type: cell-based
Bcl-2-like protein 1 [17] = target: T1, Bcl-2-like protein 1; assay: Binding affinity to full length human Bcl-xl expressed in Escherichia coli BL21 (DE3) at up to 100 uM preincubated for 30 mins followed by 5-FAM-QEDIIIINIARHLAQVGDSMD-RSIPPG tracer addition and measured after 20 mins by fluorescence polarization assay; details: dose microM <=100, time 50.0 min
[18] = target: T2, Apoptosis regulator Bcl-2; assay: Binding affinity to full length human Bcl-2 expressed in Escherichia coli BL21 (DE3) at up to 100 uM preincubated for 30 mins followed by 5-FAM-QEDIIIINIARHLAQVGDSMD-RSIPPG tracer addition and measured after 20 mins by fluorescence polarization assay; details: dose microM <=100, time 50.0 min
[19] = target: Induced myeloid leukemia cell differentiation protein Mcl-1/Bcl-2-like protein 11 (Homo sapiens) (UniProt Q07820+O43521); assay: Inhibition of MCL1/Bim interaction in human MCF7 cells assessed as disruption of MCL1/Bim complex at 10 uM measured after 24 hrs by co-immunoprecipitation based western blot analysis relative to control; assay type: cell-based
Sequence of Induced myeloid leukemia cell differentiation protein Mcl-1/Bcl-2-like protein 11 (Homo sapiens) (O43521 whole entry, looked up): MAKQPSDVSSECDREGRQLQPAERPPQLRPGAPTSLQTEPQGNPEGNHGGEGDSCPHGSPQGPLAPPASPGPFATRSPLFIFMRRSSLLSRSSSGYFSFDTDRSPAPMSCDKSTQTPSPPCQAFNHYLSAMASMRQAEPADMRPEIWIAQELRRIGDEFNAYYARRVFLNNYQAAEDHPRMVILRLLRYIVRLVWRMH
Sequence of Induced myeloid leukemia cell differentiation protein Mcl-1/Bcl-2-like protein 11 (Homo sapiens) (Q07820 whole entry, looked up): as the sequence (Q07820 whole entry) above

[20] = Cytotoxicity against HEK293T cells assessed as cell viability at 20 uM incubated for 48 hrs by CCK8 assay relative to control; assay type: cell-based, HEK-293T; details: human, read-out: Activity
HL-60 [21] = assay: Cytotoxicity against human HL-60 cells assessed as cell viability at 20 uM incubated for 48 hrs by CCK8 assay relative to control; assay type: functional; details: read-out: Activity
Bcl-2-like protein 1 [22] = target: T1, Bcl-2-like protein 1; assay: Binding affinity to full length human Bcl-xl expressed in Escherichia coli BL21 (DE3) at 100 uM preincubated for 30 mins followed by 5-FAM-QEDIIIINIARHLAQVGDSMD-RSIPPG tracer addition and measured after 20 mins by fluorescence polarization assay relative to control; details: time 50.0 min
[23] = target: T2, Apoptosis regulator Bcl-2; assay: Binding affinity to full length human Bcl-2 expressed in Escherichia coli BL21 (DE3) at 100 uM preincubated for 30 mins followed by 5-FAM-QEDIIIINIARHLAQVGDSMD-RSIPPG tracer addition and measured after 20 mins by fluorescence polarization assay relative to control; details: time 50.0 min
[24] = target: T3, Induced myeloid leukemia cell differentiation protein Mcl-1; assay: Binding affinity to full length human MCL1 expressed in Escherichia coli BL21 (DE3) at 100 uM preincubated for 30 mins followed by 5-FAM-QEDIIIINIARHLAQVGDSMD-RSIPPG tracer addition and measured after 20 mins by fluorescence polarization assay relative to control; details: time 50.0 min
HeLa [25] = assay: Cytotoxicity against human HeLa cells assessed as cell viability at 20 uM incubated for 48 hrs by CCK8 assay relative to control; assay type: functional; details: read-out: Activity

Compound	pKi [3]	pIC50 (HEK-293T)	Activity [4]	Activity [5]	Activity [6]	Activity [7]	Activity [8]	Activity [9]	pIC50 (HeLa [10])	pIC50 (HL-60 [11])	pIC50 (RS4-11 [12])	Activity (Bcl-2-like protein 1 [17])	Activity [18]	viability at 20 µM (HL-60 [21])	inhibition (Bcl-2-like protein 1 [22])	inhibition [23]	inhibition [24]	viability at 20 µM (HeLa [25])	further results
CC(C)c1ccc(Oc2ccc(O)c(O)c2)c(-c2ccsc2S(=O)(=O)NCCNC(=S)Nc2cc(C(F)(F)F)cc(C(F)(F)F)c2)c1	5.68	4.74	Active	Active	Active	Active	Active	Active	< 4.70	5.09	5.43	–	–	–	–	–	–	–	pKi (Bcl-2-like protein 1 [1]): 5.31; pKi [2]: 5.62
Cc1ccc(-c2ccsc2S(=O)(=O)NCCNC(=O)Nc2cc(C(F)(F)F)cc(C(F)(F)F)c2)c(Oc2ccc(O)c(O)c2)c1	–	< 4.70	Active	Active	Active	Active	Active	Active	5.01	5.43	5.25	inactive	inactive	–	–	–	–	–	viability at 20 µM (RS4-11 [13]): 8.79%; Activity (RS4-11 [14]): 12.98%; Activity (RS4-11 [15]): 75.04%; Activity (RS4-11 [16]): 3.19%; inhibition (MCF7): inactive; inhibition [19]: 70%
COc1ccc(Oc2ccccc2-c2ccsc2S(=O)(=O)N2CCN(C(=S)Nc3cc(C(F)(F)F)cc(C(F)(F)F)c3)CC2)cc1OC	–	–	–	–	–	–	–	–	< 4.30	–	< 4.30	–	–	38%	29%	25%	66%	–	viability at 48 h, 20 µM [20]: 42%
O=[N+]([O-])c1ccc(NC(=S)N2CCN(S(=O)(=O)c3sccc3-c3ccccc3Oc3ccc(O)c(O)c3)CC2)cc1	–	< 4.70	–	–	–	–	–	–	–	5.28	5.05	–	–	–	28%	31%	81%	49%	–
Cc1ccc(-c2ccsc2S(=O)(=O)NCCNC(=S)Nc2cccc([N+](=O)[O-])c2)c(Oc2ccc(O)c(O)c2)c1	5.12	5.10	–	–	–	–	–	–	–	5.47	5.21	inactive	inactive	–	–	–	–	40%	–
CC(C)c1ccc(Oc2ccc(O)c(O)c2)c(-c2ccsc2S(=O)(=O)NCCNC(=O)Nc2cc(C(F)(F)F)cc(C(F)(F)F)c2)c1	6.44	< 4.70	–	–	–	–	–	–	< 4.30	–	5.17	inactive	inactive	23%	–	–	–	–	–
